According to PubChem BioAssay (NCI):
“And” between values parts separate entries of the source, which are not always exact repeats. Equal values may be shown once.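 Tested at 5 concentrations; 48 h exposure; 96-well plates; endpoints linearly interpolated, else capped at highest concentration. GI50 = concentration required for 50% inhibition of growth. TGI is the concentration that stops growth completely.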

Legend:
Test in all cases: NCI tumour cell line growth inhibition, 48 h
CAKI-1 renal = tested on: CAKI-1 renal
DU-145 prostate = tested on: DU-145 prostate
HOP-92 NSCLC = tested on: HOP-92 NSCLC
HT29 colon = tested on: HT29 colon
MDA-MB-231 breast = tested on: MDA-MB-231 breast
SF-295 CNS = tested on: SF-295 CNS
SK-MEL-5 melanoma = tested on: SK-MEL-5 melanoma
SK-OV-3 ovarian = tested on: SK-OV-3 ovarian
SNB-75 CNS = tested on: SNB-75 CNS
UO-31 renal = tested on: UO-31 renal

SMILES | GI50 (CAKI-1 renal) | TGI (CAKI-1 renal) | GI50 (DU-145 prostate) | TGI (DU-145 prostate) | GI50 (HOP-92 NSCLC) | TGI (HOP-92 NSCLC) | GI50 (HT29 colon) | TGI (HT29 colon) | GI50 (MDA-MB-231 breast) | TGI (MDA-MB-231 breast) | GI50 (SF-295 CNS) | TGI (SF-295 CNS) | GI50 (SK-MEL-5 melanoma) | TGI (SK-MEL-5 melanoma) | GI50 (SK-OV-3 ovarian) | TGI (SK-OV-3 ovarian) | GI50 (SNB-75 CNS) | TGI (SNB-75 CNS) | GI50 (UO-31 renal) | TGI (UO-31 renal)
COc1ccc2nc(NC(=O)c3cccnc3Nc3cc(OC)c(OC)c(OC)c3)sc2c1 | 16.4 µM | 42.5 µM | 14.6 µM | 33.8 µM | 2.24 µM | 9.5 µM | 17.7 µM | 39.2 µM | 5.62 µM | 21.7 µM | 8.34 µM | 27.1 µM | 11.3 µM | 47.7 µM | 3.72 µM | 14.5 µM | 2.89 µM | 12.8 µM | 9.3 µM | 27.2 µM
O=S(=O)(NCCNc1nccc(-c2c(-c3ccc(F)cc3)nc3sccn23)n1)c1ccccc1 | 3.24 µM | > 100 µM | 5.14 µM | > 100 µM | 1.34 µM | 8.14 µM | 2.31 µM | > 100 µM | 16.6 µM | > 100 µM | 7.64 µM | 34.2 µM | 2.45 µM | 13.7 µM | 10.8 µM | > 100 µM | 1.61 µM | 56.2 µM | 1.83 µM | 39.8 µM
C=CS(=O)(=O)CCN1CC1 |  | > 10 µM |  | > 10 µM |  | > 10 µM |  | > 10 µM |  | > 10 µM |  | > 10 µM |  | > 10 µM |  | > 10 µM |  | > 10 µM |  | 
[Cl][Cd][Cl] | 17.7 µM and 10.9 µM | 34.8 µM and 22.2 µM | 24 µM | 63.6 µM | > 80.2 µM and 15.2 µM | 35.3 µM | 45.4 µM | 130 µM | 16.5 µM | 53.9 µM | 76.4 µM | 155 µM | 1.18 µM and 3.62 µM and 0.518 µM | 3.31 µM and 22.4 µM and 5.9 µM | 44.3 µM and 12.4 µM | > 60 µM and 26 µM | 22.7 µM and 11.2 µM | 45.6 µM and 29.4 µM | > 74 µM and 74.5 µM | 131 µM
O=C(Nc1ccc(I)cc1F)c1cc(Cl)ccc1O | 0.305 µM | 2.34 µM | 0.681 µM | > 100 µM | 0.167 µM | 0.505 µM | 3.29 µM | 27.3 µM | 0.388 µM | 4.56 µM | 1.75 µM | 3.49 µM | 0.234 µM | 0.596 µM | 0.615 µM | 2.64 µM | 0.308 µM | 2.36 µM | 0.235 µM | 1.65 µM
c1ccc(CNc2nc(Nc3ccccc3)nc3ccccc23)cc1 | 2.04 µM | 5.18 µM | 3.06 µM | 10.7 µM | 1.45 µM | 3.05 µM | 2.06 µM | 4.88 µM | 1.58 µM | 3.12 µM | 1.73 µM | 3.77 µM | 1.41 µM | 2.76 µM | 3.26 µM | 9.51 µM | 1.93 µM | 6.5 µM | 2.1 µM | 8.53 µM
Oc1ccc(Cl)cc1CNc1nc2ccccc2[nH]1 | 11.4 µM | 28.1 µM | 16.2 µM | 32.4 µM | 2.37 µM | 10.4 µM | 17.2 µM | 35.5 µM | 8.31 µM | 22.4 µM | 12.9 µM | 27.5 µM | 13 µM | 25.6 µM | 16.8 µM | 34.8 µM | 4.58 µM | 21.6 µM | 4.73 µM | 19.1 µM
NCCSCCc1ccccc1 |  | > 100 µM |  | > 100 µM |  | > 100 µM |  | > 100 µM |  | > 100 µM |  | > 100 µM |  | > 100 µM |  | > 100 µM |  | > 100 µM |  | > 100 µM
O=C(Nc1ccc(Cl)c(Cl)c1)OCCN1c2ccccc2Sc2ccccc21 |  | > 10 µM |  | > 10 µM |  | > 10 µM |  | > 10 µM |  | > 10 µM |  | > 10 µM |  | > 10 µM |  | > 10 µM |  | > 10 µM |  | 
CC(Br)C(=O)Nc1ccc(C(=O)O)c(O)c1 (stereo unspecified) |  | > 100 µM |  | > 100 µM |  | > 100 µM |  | > 100 µM |  | > 100 µM |  | > 100 µM |  | > 100 µM |  | > 100 µM |  | > 100 µM |  | > 100 µM
C=C1c2c(Cl)ccc(O)c2C(O)=C2C(=O)[C@]3(O)C(O)=C(C(N)=O)C(=O)[C@@H](N(C)C)[C@@H]3[C@@H](O)[C@H]12 | 0.499 µM | 3.4 µM | 1.62 µM | 9.15 µM | 0.669 µM | 2.16 µM | 1.55 µM | 6.18 µM | 1.07 µM | 2.93 µM | 1.19 µM | 5 µM | 0.801 µM | 1.57 µM | 1 µM | 3.2 µM | 0.845 µM | 3.61 µM | 1.19 µM | 6.22 µM
OCCN1CCN(CC/C=C2\c3ccccc3Sc3ccc(Cl)cc32)CC1 | 2.31 µM and 2.6 µM | 10.4 µM and 8.18 µM | 5.18 µM and 7.27 µM | 17.4 µM and 19.7 µM | 1.02 µM and 2.44 µM | 6.1 µM and 14.1 µM | 1.72 µM and 1.69 µM | 3.92 µM and 3.42 µM | 2.62 µM and 2.09 µM | 12 µM and 6.46 µM | 1.79 µM and 2.17 µM | 5.07 µM and 5.33 µM | 1.61 µM and 1.67 µM | 3.01 µM and 3.04 µM | 6.48 µM and 5.76 µM | 19.1 µM and 16.9 µM | 1.41 µM and 2.7 µM | 5.07 µM and 7.95 µM | 2.14 µM and 1.96 µM | 7.66 µM and 6.24 µM
C=CCCCc1ccc(C(O)CCCCCCCCCCCC)o1 (stereo unspecified) | 17.4 µM | 33.2 µM | 19 µM | 35.4 µM | 15.4 µM | 31.9 µM | 17.1 µM | 35.4 µM | 15.6 µM | 29.8 µM | 18.2 µM | 46.6 µM | 18.5 µM | 37.2 µM | 16.4 µM | 37.2 µM | 15.5 µM | 32 µM | 16.3 µM | 30.3 µM
CSc1cccc(NC(=O)OC2CCCCCCCCCCC2)c1 |  | 61 µM |  | > 100 µM |  | > 100 µM |  | 43.8 µM |  | 66.8 µM |  | 57.9 µM |  | 29.1 µM |  | 57.9 µM |  | > 100 µM |  | 22 µM
Cc1ccc(-c2nc(N3CCCNCC3)c3oc(-c4ccc(C)cc4)nc3n2)cc1 | 1.56 µM | 3.02 µM | 1.89 µM | 3.3 µM | 1.01 µM | 2.3 µM | 1.49 µM | 2.85 µM | 1.69 µM | 3.11 µM | 1.86 µM | 3.54 µM |  |  | 17.8 µM | 31.6 µM | 1.66 µM | 3.02 µM | 1.38 µM | 2.68 µM
